In this experiment the target is T1, HSV-1 helicase–primase (HP) complex (UL5/UL52/UL8) (Human alphaherpesvirus 1 strain 17, UniProt P10189+P10236).
T1 sequence (P10189 1-882): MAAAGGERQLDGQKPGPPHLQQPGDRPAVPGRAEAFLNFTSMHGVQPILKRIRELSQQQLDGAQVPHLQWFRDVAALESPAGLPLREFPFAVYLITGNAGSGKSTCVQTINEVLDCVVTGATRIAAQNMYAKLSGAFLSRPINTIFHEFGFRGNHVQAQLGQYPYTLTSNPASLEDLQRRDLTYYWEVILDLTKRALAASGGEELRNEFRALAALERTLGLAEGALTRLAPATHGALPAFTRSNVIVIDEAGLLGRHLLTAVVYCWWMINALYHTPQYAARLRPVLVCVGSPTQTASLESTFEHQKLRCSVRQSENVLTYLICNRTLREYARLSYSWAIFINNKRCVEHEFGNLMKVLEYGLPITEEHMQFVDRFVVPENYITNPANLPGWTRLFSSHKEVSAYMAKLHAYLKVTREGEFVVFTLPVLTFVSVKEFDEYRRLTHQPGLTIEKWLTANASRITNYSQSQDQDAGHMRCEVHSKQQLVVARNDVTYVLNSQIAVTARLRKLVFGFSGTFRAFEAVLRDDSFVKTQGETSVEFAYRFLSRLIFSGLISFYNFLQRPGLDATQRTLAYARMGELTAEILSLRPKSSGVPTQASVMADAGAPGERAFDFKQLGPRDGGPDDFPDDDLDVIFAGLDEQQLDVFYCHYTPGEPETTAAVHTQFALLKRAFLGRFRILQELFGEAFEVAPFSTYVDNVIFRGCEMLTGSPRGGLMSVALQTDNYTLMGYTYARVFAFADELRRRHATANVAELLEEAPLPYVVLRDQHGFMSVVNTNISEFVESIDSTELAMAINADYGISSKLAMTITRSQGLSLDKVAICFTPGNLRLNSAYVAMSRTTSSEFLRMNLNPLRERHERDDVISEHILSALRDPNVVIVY
T1 sequence (P10236 1-1058): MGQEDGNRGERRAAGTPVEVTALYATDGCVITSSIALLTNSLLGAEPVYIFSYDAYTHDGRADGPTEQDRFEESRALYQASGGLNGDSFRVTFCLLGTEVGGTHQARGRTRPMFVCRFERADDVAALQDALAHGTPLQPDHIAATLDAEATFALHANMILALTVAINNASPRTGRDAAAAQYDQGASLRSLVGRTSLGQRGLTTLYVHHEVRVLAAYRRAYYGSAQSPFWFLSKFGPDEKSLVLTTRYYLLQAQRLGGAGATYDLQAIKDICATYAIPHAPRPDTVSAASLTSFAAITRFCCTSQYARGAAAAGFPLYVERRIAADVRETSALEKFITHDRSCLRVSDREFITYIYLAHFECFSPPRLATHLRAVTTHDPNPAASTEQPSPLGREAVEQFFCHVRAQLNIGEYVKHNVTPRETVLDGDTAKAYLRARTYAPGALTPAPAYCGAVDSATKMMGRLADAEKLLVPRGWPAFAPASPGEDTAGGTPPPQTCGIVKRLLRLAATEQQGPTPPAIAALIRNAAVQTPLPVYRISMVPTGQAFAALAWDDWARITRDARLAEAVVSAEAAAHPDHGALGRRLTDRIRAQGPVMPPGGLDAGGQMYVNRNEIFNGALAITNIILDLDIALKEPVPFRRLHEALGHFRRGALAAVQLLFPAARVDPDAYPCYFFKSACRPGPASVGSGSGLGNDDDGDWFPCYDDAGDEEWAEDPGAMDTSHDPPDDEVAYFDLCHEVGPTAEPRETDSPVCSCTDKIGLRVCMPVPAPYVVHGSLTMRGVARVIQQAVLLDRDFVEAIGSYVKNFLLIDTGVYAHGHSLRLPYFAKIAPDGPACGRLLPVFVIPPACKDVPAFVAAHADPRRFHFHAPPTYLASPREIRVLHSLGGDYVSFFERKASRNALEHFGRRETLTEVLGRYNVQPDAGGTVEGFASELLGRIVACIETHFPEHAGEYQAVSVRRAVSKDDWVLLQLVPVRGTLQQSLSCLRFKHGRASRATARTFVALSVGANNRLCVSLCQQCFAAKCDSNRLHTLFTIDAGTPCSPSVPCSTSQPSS
T1 sequence (P10192 1-750 partner): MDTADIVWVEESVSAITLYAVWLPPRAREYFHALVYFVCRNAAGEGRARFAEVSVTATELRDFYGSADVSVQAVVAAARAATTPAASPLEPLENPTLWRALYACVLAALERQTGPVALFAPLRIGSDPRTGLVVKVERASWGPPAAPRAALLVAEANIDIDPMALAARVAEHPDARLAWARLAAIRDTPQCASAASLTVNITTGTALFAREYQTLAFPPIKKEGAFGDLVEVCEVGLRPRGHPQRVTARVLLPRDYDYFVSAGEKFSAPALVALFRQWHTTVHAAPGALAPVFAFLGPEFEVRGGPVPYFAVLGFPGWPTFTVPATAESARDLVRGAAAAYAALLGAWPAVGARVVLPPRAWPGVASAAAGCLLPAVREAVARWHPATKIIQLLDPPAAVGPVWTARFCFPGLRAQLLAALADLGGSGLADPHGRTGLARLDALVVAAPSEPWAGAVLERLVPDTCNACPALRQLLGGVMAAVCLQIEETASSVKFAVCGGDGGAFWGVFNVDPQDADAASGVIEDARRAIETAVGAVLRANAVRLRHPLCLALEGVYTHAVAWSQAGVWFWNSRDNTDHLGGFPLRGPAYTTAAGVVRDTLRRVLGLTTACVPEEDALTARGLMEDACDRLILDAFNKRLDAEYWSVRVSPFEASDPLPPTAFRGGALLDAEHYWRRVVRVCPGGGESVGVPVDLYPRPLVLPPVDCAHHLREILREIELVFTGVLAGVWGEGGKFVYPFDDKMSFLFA
In words: fluorescent forked-DNA unwinding. Type of experiment: biochemical.

pIC50: −log10 of the molar value.

In general, pIC50 refers to the IC50 on a negative log10 scale, so that one unit is a factor of ten. On to `Cc1nc(N(C)C(=O)Cc2ccc(-c3ccccn3)cc2)sc1S(N)(=O)=O` [PTV, pritelivir], for which the pIC50 was 7.95.
In the case of `Cc1cccc(C)c1N(CC(=O)Nc1ccc(-c2ncon2)cc1)C(=O)C1CCS(=O)(=O)CC1` [AMNV, amenamevir] it was 8.46.

For the origin of these results see publication PMC12669039 (Nature Microbiology, 2025).
